This is an account of results in patent US7960133B2, “Methods of diagnosing leiomyoma by measuring catechol-O-methyltransferase” (The Board of Regents of the University of Texas System, priority 2003, dated 2011).

Assay type in all cases: cell-based, rat
The test system of one experiment is ELT3 cells. Briefly: ELT3 cell proliferation assay (Hoechst 33258 DNA quantitation). The note with it: for reduction in cell proliferation compared to the untreated control / cell proliferation increase from the control: estrogen-free. As to the method:
The Eker rat tumor-derived ELT-3 uterine leiomyoma cells were grown in DMEM medium supplemented with 10% fetal bovine serum and 1% antibiotics (containing 100 U/ml penicillin and 100 μg/ml streptomycin. The cells were maintained in the 100 mm tissue culture dishes at 37° C. air with 5% CO2 and 95% humidity. When experiments required the addition of exogenous compounds, cells were weaned by culturing for 48 h in phenol red-free medium containing 10% Charcoal-stripped fetal calf serum. For proliferation assays, cells were plated onto 24-well plates in DMEM at a density of 4000 cells/well. The cells allowed to attach overnight and then treated with E2 (10^−6 to 10^−10 M) without COMT-inhibitor or with 10 μM of COMT-inhibitor, 2-OHE2 (10^−5 to 10^−10 M) without COMT-I, or with 10 μM COMT-I, 2-OHE2, or 2-MeOHE2 (10^−5 to 10^−10 M). Control cells were treated with medium containing 10 μl of absolute ethanol. After 48 hours, the cells were harvested for the proliferation assay. For western blot analysis, the cells were seeded in 100 mm plates at final density of 2×10^6 cells/plate. […] Cells were harvested 48 hours after treatment and cell lysates were used for western blotting. A fluorometric assay, implementing Hoechst 33258 (bisbenzimide), was used for DNA quantitation. ELT3 cells (5×10^3 cells/well) were plated (described above). The cells were allowed to attach overnight at 37° C., and then the media were replaced with media containing the appropriate treatment. Control cells were treated with a 1:1000 dilution of absolute ethanol. The cells were incubated with the treatments for 48 hours, followed by cell lysis and DNA content determination using Hoechst dye solution (10 μl/100 ml distilled H2O). Fluorescence was measured (DyNA Quant 200; Hoefer Pharmacia Biotech) after excitation at 365 nm and fluorescence at 458 nm. Calf thymus DNA was used as a standard to determine DNA concentration.

Experiment [1] relates to estrogen response elements-luciferase reporter (AdERE-Luc) in ELT3 cells. As to the kind of experiment: AdERE-Luc reporter luciferase activity in ELT3 cells. The note with it: for luciferase activity reduction compared to E2 (10^−8 M) alone: plus E2 10^−8 M. The source says:
Transfection of ELT3 cells with recombinant ERE-Luciferase adenovirus vector was achieved by maintaining ELT 3 cells as described above. For infection with estrogen response elements-luciferase reporter adenoviral vector (Ad ERE-Luc), the cells were allowed to grow to 60-70% confluence and then infected with Ad ERE-Luc vector at multiplicity of infection (MOI) of 100 plaque-forming units (PFU)/cell for two hours in infection medium containing 2% FCS and 1% penicillin/streptomycin. Then, the infection media were removed and replaced with regular media. The transduction efficiency of the adenoviral vectors in ELT3 cells was tested using Ad LacZ vector. β-Galactosidase expression was detected in 95-100% of ELT3 cells at 48 h after infection with Ad LacZ at a 100 PFU. Therefore, subsequent experiments were performed using similar amounts (100 PFU/cell) of recombinant Ad ERE-Luc vector.
ELT3 cells transfected with AdERE-Luc were treated with E2 and with or without COMT-I or with different concentrations of 2-OHE2 (10^−10 to 10^−6 M) with or with out COMT-I (10 μM). After 48 h incubation with chemicals, cells were harvested with 100 μl of cell lysis buffer (Promega). Luciferase activity was determined using Luciferase Assay Kit (Promega) according to the manufacturer's instructions.

In the next experiment the test system is Bcl2. Briefly: Western blot of Bcl2 protein expression in ELT3 cells. The note with it: 48 h, maximal inhibition at 10 μM. How it is done:
(§1) The Eker rat tumor-derived ELT-3 uterine leiomyoma cells were grown in DMEM medium supplemented with 10% fetal bovine serum and 1% antibiotics (containing 100 U/ml penicillin and 100 μg/ml streptomycin. The cells were maintained in the 100 mm tissue culture dishes at 37° C. air with 5% CO2 and 95% humidity. When experiments required the addition of exogenous compounds, cells were weaned by culturing for 48 h in phenol red-free medium containing 10% Charcoal-stripped fetal calf serum. For proliferation assays, cells were plated onto 24-well plates in DMEM at a density of 4000 cells/well. The cells allowed to attach overnight and then treated with E2 (10^−6 to 10^−10 M) without COMT-inhibitor or with 10 μM of COMT-inhibitor, 2-OHE2 (10^−5 to 10^−10 M) without COMT-I, or with 10 μM COMT-I, 2-OHE2, or 2-MeOHE2 (10^−5 to 10^−10 M). Control cells were treated with medium containing 10 μl of absolute ethanol. […]
(§2) Immunoreactive proteins corresponding to VEGF, Cyclin D, Bcl-2, Bax, and β-actin were identified from total protein by western immunoblotting using specific monoclonal antibodies. […] After a 10-min spin at 10,000×g, the supernatant containing the total cell lysates were quantified using BCA Protein Assay Reagent (Pierce, Rockford, Ill.). […] The expression level of target proteins was quantitated densitometrically and normalized using β-actin expression.
For orientation: In western blotting, separated proteins are transferred to a membrane and probed.

The subject of another experiment is Bax. Briefly: Western blot of Bax protein expression in ELT3 cells. To be noted: 48 h. As to the method:
as §1, §2

Another experiment concerns VEGF. As to the kind of experiment: Western blot of VEGF protein expression in ELT3 cells. To be noted: 48 h, maximal inhibition at 10 μM. How it is done:
as §1, §2

For the next experiment, the system named is cyclin D1. Briefly: Western blot of cyclin D1 protein expression in ELT3 cells. The note with it: 48 h, maximal inhibition at 10 μM. As to the method: as §1, §2
[2] abbreviates: COMT inhibitor 10^−5 M co-treatment, P<0.05.

Consider `C[C@]12CC[C@@H]3c4ccc(O)cc4CC[C@H]3[C@@H]1CC[C@@H]2O` [E2, β-Estradiol], for which the “concentration of maximum effect on ELT3 proliferation” value in the experiment on ELT3 cells (E2 alone, 48 h) is on record as 10^−8 M. Further, in experiment [1] (E2 10^−8 M), the “maximum up-regulation of AdERE-Luciferase” value is on record as 6 fold.

On to `COc1cc2c(cc1O)CC[C@@H]1[C@@H]2CC[C@]2(C)[C@@H](O)CC[C@@H]12` [2-MeOHE2, 2-Methoxyestradiol], for which, in the experiment on Bcl2, the Bcl2 protein expression entry is “concentration-dependent inhibition”. Further, the “cell proliferation reduction compared to the corresponding control” value in the experiment on ELT3 cells (2-MeOHE2 5×10^−7 M) is given as 30%; in the experiment on ELT3 cells (2-MeOHE2 10^−5 M) it was 65%; in the experiment on ELT3 cells (2-MeOHE2 10^−6 M), 51%; with ELT3 cells (2-MeOHE2 10^−7 M), 16%. Besides, the “cell proliferation increase from the untreated control” value in the experiment with ELT3 cells (2-MeOHE2 5×10^−8 M) came to 31%; in the experiment on ELT3 cells (2-MeOHE2 10^−8 M), 24%; in the experiment with ELT3 cells (2-MeOHE2 10^−9 M) it was 20%; with ELT3 cells (2-MeOHE2 10^−10 M) it was 15%. The Bax protein expression entry with Bax is “gradient increase”. For the same compound, in the experiment with VEGF, the VEGF protein expression result is on record as “concentration-dependent inhibition”. Besides, in the experiment with cyclin D1, the “cyclin D1 protein expression” value is on record as “concentration-dependent inhibition”.

Turning to `O=C(c1cc(O)c(O)c([N+](=O)[O-])c1)c1ccccc1F` [COMT inhibitor, R0 41-0960], in the experiment with ELT3 cells (setting [2]), the “effect on the antiproliferative effect of high dose 2-OHE2” value is listed as “augmented” and the “effect on the proliferative effect of low dose 2-OHE2” value is given as “consistently antagonized”. For the same compound, in the experiment on ELT3 cells (COMT inhibitor 10^−5 M with E2 10^−10 to 10^−6 M, P<0.05 at all estrogen concentrations), the “effect on E2-induced cell proliferation” value is “consistently inhibited”. In addition, in experiment [1] (COMT inhibitor 10^−5 M, E2 10^-6 and 10^-5 M, P=0.056 and P=0.17), the “effect on E2-induced AdERE-luciferase at higher E2 concentrations” value is on record as “less pronounced”. In experiment [1] (COMT inhibitor 10^−5 M, E2 10^-10 to 10^-7 M, P<0.05), the “AdERE-luciferase compared to treatment with E2 alone” value was “significant down regulation”.

On to `C[C@]12CC[C@@H]3c4cc(O)c(O)cc4CC[C@H]3[C@@H]1CC[C@@H]2O` [2-OHE2, 2-Hydroxyestradiol], for which the “reduction in cell proliferation compared to the untreated control” value in the experiment on ELT3 cells (2-OHE2 10^−6 M) was 21%; in the experiment on ELT3 cells (2-OHE2 10^−7 M), 16%. The figures for the cell proliferation increase in the experiment with ELT3 cells (2-OHE2 10^−8 M in the presence of E2 (10^−8 M)), in the experiment with ELT3 cells (2-OHE2 10^−9 M in the presence of E2 (10^−8 M)) and in the experiment on ELT3 cells (2-OHE2 10^−10 M in the presence of E2 (10^−8 M)) were 33%, 24% and 10%, respectively. Besides, the “cell proliferation increase from the control” value is 61% with ELT3 cells (2-OHE2 10^−8 M), 54% in the experiment with ELT3 cells (2-OHE2 10^−9 M) and 19% in the experiment with ELT3 cells (2-OHE2 10^−10 M). In addition, the “luciferase activity reduction compared to E2 (10^−8 M) alone” value in experiment [1] (2-OHE2 10^−6 M) came out at 39%; in experiment [1] (2-OHE2 10^−7 M), 32%; in experiment [1] (2-OHE2 10^−8 M), 32%; in experiment [1] (2-OHE2 10^−10 to 10^−9 M), 30%. Besides, the AdERE-Luc activity result in experiment [1] (2-OHE2, E2-free environment, concentration dependent) is reported as “up-regulated”.
